# Source: patent US20090029391A1, “REAGENTS AND METHODS FOR THE DETERMINATION OF PK/ADME-TOX CHARACTERISTICS OF NEW CHEMICAL ENTITIES AND OF DRUG CANDIDATES” (priority 2007, published 2009)
# Legend:
# [1] = Redox potential with PANI-COOH conductive polymer (O.D. 450 nm); type: physicochemical; details: 100 μM drug, PANI-COOH at pH 4, 10 minutes room temperature; inferred from 450 nm signal
# Protocol: The redox potential of known drugs were assayed. The known drug at a given final concentration (100 μM) was introduced in a buffered solution of a conductive polymer (poly[aniline-2-carboxylic acid], PANI-COOH) at pH 4. The solution was mixed and incubated at room temperature (10 minutes). The optical density was read at 450 nm. A sample blank containing the drug and phtalate buffer was prepared, incubated and read in the same way. The OD 450 nm of the blank solution was subtracted from the OD 450 nm of the conductive polymer reaction mixture. […] A linear relationship was observed between the 450 nm signal and the reduction potential of the known molecules (FIG. 15.), which allowed the inference of the reduction potential of NCEs.
# Screening a library of 60 well-known drugs allowed identification of bromocriptine as a relatively strong […] (E=−364 mV), prazosin and chlorpropamide as relatively strong […] (E=747 and 848 mV), which is in agreement with literature data (Wardman P. (1989) Reduction potentials of one-electron couples involving free radicals in aqueous solution. J. Phys. Chem. Ref. Data 18, 1637-1755). Although a reductant drug may exert beneficial therapeutic effects, an oxidant may be toxic. […]
# [2] = Williams and Lemke 2002; (1), (2) number the two pKa of doxycycline; cited from earlier work
# [3] = pKa by colloidal gold pH titration (ratio O.D. 620 nm/525 nm); details: colloidal gold pH titration of 1 mM drugs, 1% DMSO, (2) number the two pKa of doxycycline; for pKa: buffered gold colloid (gold nanoparticle solution), pKa observed
# Protocol: (§1) A series of 50 mM buffers of pH 2-12 was then prepared (phosphate [pH 2, 3, 6, 7, 8], acetate [pH 4 and 5] and borate [pH 9, 10, 11, 12]), which were further diluted 5-fold with the gold colloid solution. The final pH of the 10 mM buffered colloid so obtained was then recorded. Drug solutions (10 μl, 100 mM in DMSO) were then pipeted in 1 mL of the buffered colloid and the mixture was vortex-mixed. After 30 minutes of incubation, the solutions were pipeted in 96-well polystyrene plates and the O.D. at 620 nm and 525 nm were recorded. The ratio O.D. 620 nm/O.D. 525 nm was calculated. This ratio relates to the agglutination of the colloid (i.e., the higher the ratio, the higher the agglutination). Typically, the ionization of a molecule creates charge(s) that may facilitate the agglutination of the colloid. Thus, titering a molecule with buffered gold colloids over a range of pHs can allow one to determine the ionization constant from the interpolated mid-point of the sigmoid curve drawn from agglutinated to unagglutinated colloid as a function of pH.
# bovine serum albumin = bovine serum albumin (Bos taurus, UniProt P02769); details: known drugs of Example 5, described as poor, medium or high binders; cited from earlier work
# Sequence of bovine serum albumin (P02769 25-607): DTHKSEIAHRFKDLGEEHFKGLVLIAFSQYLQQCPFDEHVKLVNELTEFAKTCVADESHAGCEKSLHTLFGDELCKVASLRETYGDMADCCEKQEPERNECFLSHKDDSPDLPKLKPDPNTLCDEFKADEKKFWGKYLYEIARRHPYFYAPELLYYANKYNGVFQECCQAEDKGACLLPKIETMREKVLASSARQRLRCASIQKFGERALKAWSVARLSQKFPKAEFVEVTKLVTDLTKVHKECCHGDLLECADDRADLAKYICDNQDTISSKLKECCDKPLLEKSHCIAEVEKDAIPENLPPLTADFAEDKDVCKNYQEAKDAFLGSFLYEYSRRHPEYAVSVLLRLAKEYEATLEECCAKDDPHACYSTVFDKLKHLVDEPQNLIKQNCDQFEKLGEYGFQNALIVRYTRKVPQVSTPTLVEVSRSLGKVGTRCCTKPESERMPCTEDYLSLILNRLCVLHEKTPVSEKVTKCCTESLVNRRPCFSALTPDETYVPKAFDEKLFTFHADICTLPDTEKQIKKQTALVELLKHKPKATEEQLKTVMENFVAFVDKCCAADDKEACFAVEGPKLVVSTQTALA
# human serum albumin = human serum albumin (Homo sapiens, UniProt P02768); details: literature (Westphal 1986); cited from earlier work
# Sequence of human serum albumin (P02768 25-609): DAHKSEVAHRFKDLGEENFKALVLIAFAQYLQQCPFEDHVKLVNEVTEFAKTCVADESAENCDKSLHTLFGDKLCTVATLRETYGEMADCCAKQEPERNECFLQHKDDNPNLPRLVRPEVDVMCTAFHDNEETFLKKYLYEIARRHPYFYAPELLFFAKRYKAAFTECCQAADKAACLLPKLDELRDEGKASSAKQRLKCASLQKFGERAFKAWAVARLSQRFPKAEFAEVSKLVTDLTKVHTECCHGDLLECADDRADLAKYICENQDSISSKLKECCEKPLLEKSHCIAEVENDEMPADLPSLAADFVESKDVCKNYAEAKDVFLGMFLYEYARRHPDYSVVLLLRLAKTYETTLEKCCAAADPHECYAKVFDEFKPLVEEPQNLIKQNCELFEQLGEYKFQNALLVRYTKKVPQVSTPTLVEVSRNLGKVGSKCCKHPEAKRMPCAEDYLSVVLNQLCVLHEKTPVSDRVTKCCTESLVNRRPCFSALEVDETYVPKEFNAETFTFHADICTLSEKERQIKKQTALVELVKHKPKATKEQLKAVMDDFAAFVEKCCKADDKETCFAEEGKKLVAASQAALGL
# serum albumin = details: literature (Goodman and Gillman 1996); cited from earlier work
# [4] = literature (Goodman and Gillman 1996); cited from earlier work
# [5] = Volume of distribution in humans; details: human
# physchem = details: pKa observed
# Protocol: as §1
compound,measurement,setting,value
COc1cc2nc(N3CCN(C(=O)c4ccco4)CC3)nc(N)c2cc1OC [prazosin],reduction potential E,[1],747 mV
Nc1ccc(S(=O)(=O)c2ccc(N)cc2)cc1 [Dapsone],pKa from reference,[2],2.4
same,pKa,[3],3.9
CN(C)CCC(c1ccc(Cl)cc1)c1ccccn1 (stereo not shown) [Chlorpheniramine],binder class to the protein (bovine serum albumin),bovine serum albumin,medium binders
CC(=O)Nc1ccc(O)cc1 [Paracetamol],pKa from reference,[2],9.4
same,pKa observed,[3],9.5
CCCNC(=O)NS(=O)(=O)c1ccc(Cl)cc1 [chlorpropamide],reduction potential E,[1],848 mV
"CC[C@H]1OC(=O)[C@H](C)[C@@H](O[C@H]2C[C@@](C)(OC)[C@@H](O)[C@H](C)O2)[C@H](C)[C@@H](O[C@@H]2O[C@H](C)C[C@H](N(C)C)[C@H]2O)[C@](C)(O)C[C@@H](C)C(=O)[C@H](C)[C@@H](O)[C@]1(C)O [Erythromycine, Erythromycin]",pKa,[3],6.9
same,binder class to the protein (bovine serum albumin),bovine serum albumin,medium binders
"CC(=O)Oc1ccccc1C(=O)O [Aspirin, Acetylsalicylic acid]",binder class to the protein (bovine serum albumin),bovine serum albumin,poor binders
"C[C@H]1O[C@@H](O[C@H]2[C@@H](O)C[C@H](O[C@H]3[C@@H](O)C[C@H](O[C@H]4CC[C@@]5(C)[C@H](CC[C@@H]6[C@@H]5C[C@@H](O)[C@]5(C)[C@@H](C7=CC(=O)OC7)CC[C@]65O)C4)O[C@@H]3C)O[C@@H]2C)C[C@H](O)[C@@H]1O [digoxin, Digoxin]",apparent affinity for human serum albumin determined by dialysis,human serum albumin,1.85.10^5 liters per mole
C=CC1=C(C)/C(=C/c2[nH]c(Cc3[nH]c(/C=C4\NC(=O)C(C)=C4C=C)c(C)c3CCC(=O)O)c(CCC(=O)O)c2C)NC1=O [bilirubin],bound by serum albumin / by the protein in plasma,serum albumin,~100%
C=C[C@H]1C[N@@]2CC[C@H]1C[C@@H]2[C@@H](O)c1ccnc2ccc(OC)cc12 [Quinidine],pKa,[3],7.4
Cn1c(=O)c2[nH]cnc2n(C)c1=O [theophylline],volume of distribution observed experimentally,[4],0.50±0.16 liters per Kg
same,Vd,[5],0.551 L/kg
CCOc1ccc2ccccc2c1C(=O)N[C@@H]1C(=O)N2[C@@H]1SC(C)(C)[C@@H]2C(=O)O [Nafcillin],pKa,physchem,3
